According to ChEMBL document CHEMBL4425121, “Discovery of Substituted 1H-Pyrazolo[3,4-b]pyridine Derivatives as Potent and Selective FGFR Kinase Inhibitors” (ACS Med Chem Lett, 2016):
Each block holds one molecule with its values, some of them ahead of it.

Columns and labels:
[1] = test system: NCI-H1581; experiment: Antiproliferative activity against human NCI-H1581 cells after 72 hrs by CCK-8 assay; assay type: functional, cell-based; conditions: NCI-H1581, 72 h
[2] = molecular target: Fibroblast growth factor receptor 1 (Homo sapiens, UniProt P11362); experiment: Inhibition of recombinant human FGFR1 using poly (Glu,Tyr)4:1 as substrate incubated for 60 mins by ELISA
Fibroblast growth factor receptor 1, sequence (P11362 whole entry): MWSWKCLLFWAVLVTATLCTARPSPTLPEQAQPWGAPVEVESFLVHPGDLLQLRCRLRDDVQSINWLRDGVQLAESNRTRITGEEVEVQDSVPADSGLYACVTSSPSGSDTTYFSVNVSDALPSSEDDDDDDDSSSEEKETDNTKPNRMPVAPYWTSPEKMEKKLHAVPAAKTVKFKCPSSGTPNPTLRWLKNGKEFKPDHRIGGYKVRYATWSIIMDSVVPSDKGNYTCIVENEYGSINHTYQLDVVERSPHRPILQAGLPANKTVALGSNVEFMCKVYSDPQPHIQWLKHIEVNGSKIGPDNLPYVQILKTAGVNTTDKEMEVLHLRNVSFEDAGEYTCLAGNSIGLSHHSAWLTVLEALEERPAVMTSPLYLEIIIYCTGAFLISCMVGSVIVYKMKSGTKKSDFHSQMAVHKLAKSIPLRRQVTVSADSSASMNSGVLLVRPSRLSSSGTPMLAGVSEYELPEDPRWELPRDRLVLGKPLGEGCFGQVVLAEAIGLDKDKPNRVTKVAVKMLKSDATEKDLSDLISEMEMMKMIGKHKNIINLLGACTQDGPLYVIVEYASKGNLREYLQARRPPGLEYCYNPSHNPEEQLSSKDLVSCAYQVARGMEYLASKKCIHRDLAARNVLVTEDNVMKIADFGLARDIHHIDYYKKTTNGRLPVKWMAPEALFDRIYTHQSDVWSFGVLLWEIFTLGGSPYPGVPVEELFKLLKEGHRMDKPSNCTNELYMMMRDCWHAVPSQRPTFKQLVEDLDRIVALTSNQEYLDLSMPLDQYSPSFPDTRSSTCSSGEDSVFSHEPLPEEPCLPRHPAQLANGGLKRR

[3] = Clearance in ICR mouse at 2 mg/kg, iv by LC-MS/MS analysis; assay type: ADME, organism-based; conditions: in vivo
[4] = AUC(0 to infinity) in ICR mouse at 12.5 mg/kg administered as oral gavage by LC-MS/MS analysis; assay type: ADME, organism-based; parameters: dose 12.5 mg/kg, route oral, time infinity; conditions: in vivo
[5] = Volume of distribution in ICR mouse at 2 mg/kg, iv by LC-MS/MS analysis; assay type: ADME, organism-based; conditions: in vivo
[6] = Cmax in ICR mouse at 2 mg/kg, iv by LC-MS/MS analysis; assay type: ADME, organism-based; parameters: dose 2 mg/kg, route intravenous; conditions: in vivo
[7] = AUC(0 to infinity) in ICR mouse at 2 mg/kg, iv by LC-MS/MS analysis; assay type: ADME, organism-based; parameters: dose 2 mg/kg, time infinity, route intravenous; conditions: in vivo
[8] = Oral bioavailability in ICR mouse at 12.5 mg/kg administered as gavage by LC-MS/MS analysis; assay type: ADME, organism-based; conditions: in vivo
[9] = Cmax in ICR mouse at 12.5 mg/kg administered as oral gavage by LC-MS/MS analysis; assay type: ADME, organism-based; parameters: dose 12.5 mg/kg, route oral; conditions: in vivo
[10] = Protein binding in mouse plasma at 5 uM after 4 hrs by equilibrium dialysis assay; assay type: ADME, cell-free; conditions: read-out: PPB (converted)
[11] = Half life in ICR mouse at 2 mg/kg, iv by LC-MS/MS analysis; assay type: ADME, organism-based; conditions: in vivo
[12] = Half life in ICR mouse at 12.5 mg/kg administered as oral gavage by LC-MS/MS analysis; assay type: ADME, organism-based; conditions: in vivo
[13] = test system: NCI-H1581; experiment: Antitumor activity against human NCI-H1581 cells xenografted in nude mouse assessed as tumor growth inhibition at 12.5 mg/kg, po qd administered for 21 days; assay type: functional; conditions: 504 h, read-out: TGI
[14] = test system: KG-1; experiment: Antiproliferative activity against human KG1 cells after 72 hrs by CCK-8 assay; assay type: functional, cell-based; conditions: KG-1, 72 h
[15] = test system: RT-112; experiment: Antiproliferative activity against human RT112 cells after 72 hrs by CCK-8 assay; assay type: functional, cell-based; conditions: RT-112, 72 h
[16] = Toxicity in nude mouse xenografted with human NCI-H1581 cells assessed as body weight loss at 50 mg/kg, po qd administered for 21 days; assay type: organism-based; conditions: in vivo, 504 h
[17] = molecular target: Fibroblast growth factor receptor 4 (Homo sapiens, UniProt P22455)
Fibroblast growth factor receptor 4, sequence (P22455 whole entry): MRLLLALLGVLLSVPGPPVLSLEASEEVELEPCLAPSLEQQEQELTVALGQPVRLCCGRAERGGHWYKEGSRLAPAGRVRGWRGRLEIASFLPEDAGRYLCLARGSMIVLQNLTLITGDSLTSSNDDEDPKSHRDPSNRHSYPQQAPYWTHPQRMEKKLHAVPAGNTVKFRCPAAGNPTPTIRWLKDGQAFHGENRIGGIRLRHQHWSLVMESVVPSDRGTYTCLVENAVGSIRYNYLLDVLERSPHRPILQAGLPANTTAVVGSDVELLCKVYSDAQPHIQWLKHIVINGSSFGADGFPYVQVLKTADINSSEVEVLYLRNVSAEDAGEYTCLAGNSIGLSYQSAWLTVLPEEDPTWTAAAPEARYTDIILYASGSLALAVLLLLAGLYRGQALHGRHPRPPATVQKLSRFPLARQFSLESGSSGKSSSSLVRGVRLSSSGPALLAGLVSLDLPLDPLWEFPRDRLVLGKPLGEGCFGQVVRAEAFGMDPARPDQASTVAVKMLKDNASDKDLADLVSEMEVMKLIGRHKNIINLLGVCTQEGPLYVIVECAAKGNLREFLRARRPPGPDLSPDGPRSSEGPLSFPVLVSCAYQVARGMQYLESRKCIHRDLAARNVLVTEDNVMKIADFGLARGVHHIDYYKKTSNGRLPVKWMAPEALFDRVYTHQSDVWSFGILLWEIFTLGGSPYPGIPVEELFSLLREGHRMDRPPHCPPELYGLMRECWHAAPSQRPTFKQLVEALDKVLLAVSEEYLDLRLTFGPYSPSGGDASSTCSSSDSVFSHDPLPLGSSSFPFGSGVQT
Description: Inhibition of human FGFR4 using poly (Glu,Tyr)4:1 as substrate incubated for 60 mins by ELISA

[18] = test system: NCI-H1581; conditions: Homo sapiens
Description: Antitumor activity against human NCI-H1581 cells xenografted in nude mouse assessed as tumor growth inhibition administered orally qd for 21 days

[19] = molecular target: Fibroblast growth factor receptor 3 (Homo sapiens, UniProt P22607); experiment: Inhibition of human FGFR3 using poly (Glu,Tyr)4:1 as substrate incubated for 60 mins by ELISA
Fibroblast growth factor receptor 3, sequence (P22607 whole entry): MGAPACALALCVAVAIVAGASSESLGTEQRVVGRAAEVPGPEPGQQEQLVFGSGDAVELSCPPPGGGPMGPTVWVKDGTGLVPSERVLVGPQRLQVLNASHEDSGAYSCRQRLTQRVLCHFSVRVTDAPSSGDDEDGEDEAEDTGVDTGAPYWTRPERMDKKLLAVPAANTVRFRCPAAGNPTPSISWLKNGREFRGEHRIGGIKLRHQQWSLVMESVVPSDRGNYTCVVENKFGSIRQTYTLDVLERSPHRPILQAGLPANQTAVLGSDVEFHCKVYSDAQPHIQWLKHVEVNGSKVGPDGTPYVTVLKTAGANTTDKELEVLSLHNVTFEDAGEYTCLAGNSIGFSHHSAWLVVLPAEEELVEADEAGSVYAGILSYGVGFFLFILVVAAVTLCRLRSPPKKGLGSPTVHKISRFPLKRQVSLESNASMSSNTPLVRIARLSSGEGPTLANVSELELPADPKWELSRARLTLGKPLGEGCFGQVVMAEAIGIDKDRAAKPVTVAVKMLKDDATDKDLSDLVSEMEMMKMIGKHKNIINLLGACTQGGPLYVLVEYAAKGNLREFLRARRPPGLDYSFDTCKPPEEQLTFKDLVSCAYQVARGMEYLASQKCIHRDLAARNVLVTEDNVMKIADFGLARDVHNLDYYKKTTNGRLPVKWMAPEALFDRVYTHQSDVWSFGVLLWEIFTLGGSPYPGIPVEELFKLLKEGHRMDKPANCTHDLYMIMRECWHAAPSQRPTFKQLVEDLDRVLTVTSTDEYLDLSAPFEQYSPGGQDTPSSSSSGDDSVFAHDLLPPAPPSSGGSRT

[20] = Toxicity in nude mouse xenografted with human NCI-H1581 cells assessed as body weight loss at 12.5 mg/kg, po qd administered for 21 days; assay type: organism-based; conditions: in vivo, 504 h
[21] = Antiproliferative activity against human KATO III cells after 72 hrs by CCK-8 assay; assay type: functional, cell-based
[22] = test system: SNU-16; experiment: Antiproliferative activity against human SNU16 cells after 72 hrs by CCK-8 assay; assay type: functional, cell-based; conditions: SNU-16, 72 h
[23] = molecular target: Fibroblast growth factor receptor 2 (Homo sapiens, UniProt P21802)
Fibroblast growth factor receptor 2, sequence (P21802 whole entry): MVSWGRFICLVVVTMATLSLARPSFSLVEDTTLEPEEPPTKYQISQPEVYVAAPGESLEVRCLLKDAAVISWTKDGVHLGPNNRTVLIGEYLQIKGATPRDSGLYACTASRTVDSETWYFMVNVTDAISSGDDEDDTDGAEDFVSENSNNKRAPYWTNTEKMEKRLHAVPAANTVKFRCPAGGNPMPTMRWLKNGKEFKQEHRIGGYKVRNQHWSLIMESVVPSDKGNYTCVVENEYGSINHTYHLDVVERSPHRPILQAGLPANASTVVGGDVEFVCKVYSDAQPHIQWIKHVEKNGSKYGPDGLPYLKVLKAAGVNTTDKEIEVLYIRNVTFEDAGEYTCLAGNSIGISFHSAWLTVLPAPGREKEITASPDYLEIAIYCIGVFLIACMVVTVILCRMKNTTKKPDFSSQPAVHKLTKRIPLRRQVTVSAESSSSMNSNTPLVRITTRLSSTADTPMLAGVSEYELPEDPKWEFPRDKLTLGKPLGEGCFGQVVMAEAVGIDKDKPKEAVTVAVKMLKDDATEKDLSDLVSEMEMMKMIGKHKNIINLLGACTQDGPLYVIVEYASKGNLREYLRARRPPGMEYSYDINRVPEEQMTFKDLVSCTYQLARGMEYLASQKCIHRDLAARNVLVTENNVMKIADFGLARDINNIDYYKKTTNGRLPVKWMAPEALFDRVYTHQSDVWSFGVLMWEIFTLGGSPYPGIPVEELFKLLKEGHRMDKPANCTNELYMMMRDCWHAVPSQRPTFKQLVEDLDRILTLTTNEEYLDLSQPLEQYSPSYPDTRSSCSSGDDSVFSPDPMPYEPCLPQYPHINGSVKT
Description: Inhibition of human FGFR2 using poly (Glu,Tyr)4:1 as substrate incubated for 60 mins by ELISA

[24] = test system: NCI-H1581; experiment: Antitumor activity against human NCI-H1581 cells xenografted in nude mouse assessed as tumor growth inhibition at 50 mg/kg, po qd administered for 21 days; assay type: functional; conditions: 504 h, read-out: TGI
[25] = molecular target: T1, Vascular endothelial growth factor receptor 2 (Homo sapiens, UniProt P35968); experiment: Inhibition of VEGFR2 (unknown origin) overexpressed in mouse NIH/ 3T3 cells incubated for 5 mins followed by stimulation with VEGF for 5 mins by immunoblotting analysis; assay type: cell-based
T1 sequence (P35968 whole entry): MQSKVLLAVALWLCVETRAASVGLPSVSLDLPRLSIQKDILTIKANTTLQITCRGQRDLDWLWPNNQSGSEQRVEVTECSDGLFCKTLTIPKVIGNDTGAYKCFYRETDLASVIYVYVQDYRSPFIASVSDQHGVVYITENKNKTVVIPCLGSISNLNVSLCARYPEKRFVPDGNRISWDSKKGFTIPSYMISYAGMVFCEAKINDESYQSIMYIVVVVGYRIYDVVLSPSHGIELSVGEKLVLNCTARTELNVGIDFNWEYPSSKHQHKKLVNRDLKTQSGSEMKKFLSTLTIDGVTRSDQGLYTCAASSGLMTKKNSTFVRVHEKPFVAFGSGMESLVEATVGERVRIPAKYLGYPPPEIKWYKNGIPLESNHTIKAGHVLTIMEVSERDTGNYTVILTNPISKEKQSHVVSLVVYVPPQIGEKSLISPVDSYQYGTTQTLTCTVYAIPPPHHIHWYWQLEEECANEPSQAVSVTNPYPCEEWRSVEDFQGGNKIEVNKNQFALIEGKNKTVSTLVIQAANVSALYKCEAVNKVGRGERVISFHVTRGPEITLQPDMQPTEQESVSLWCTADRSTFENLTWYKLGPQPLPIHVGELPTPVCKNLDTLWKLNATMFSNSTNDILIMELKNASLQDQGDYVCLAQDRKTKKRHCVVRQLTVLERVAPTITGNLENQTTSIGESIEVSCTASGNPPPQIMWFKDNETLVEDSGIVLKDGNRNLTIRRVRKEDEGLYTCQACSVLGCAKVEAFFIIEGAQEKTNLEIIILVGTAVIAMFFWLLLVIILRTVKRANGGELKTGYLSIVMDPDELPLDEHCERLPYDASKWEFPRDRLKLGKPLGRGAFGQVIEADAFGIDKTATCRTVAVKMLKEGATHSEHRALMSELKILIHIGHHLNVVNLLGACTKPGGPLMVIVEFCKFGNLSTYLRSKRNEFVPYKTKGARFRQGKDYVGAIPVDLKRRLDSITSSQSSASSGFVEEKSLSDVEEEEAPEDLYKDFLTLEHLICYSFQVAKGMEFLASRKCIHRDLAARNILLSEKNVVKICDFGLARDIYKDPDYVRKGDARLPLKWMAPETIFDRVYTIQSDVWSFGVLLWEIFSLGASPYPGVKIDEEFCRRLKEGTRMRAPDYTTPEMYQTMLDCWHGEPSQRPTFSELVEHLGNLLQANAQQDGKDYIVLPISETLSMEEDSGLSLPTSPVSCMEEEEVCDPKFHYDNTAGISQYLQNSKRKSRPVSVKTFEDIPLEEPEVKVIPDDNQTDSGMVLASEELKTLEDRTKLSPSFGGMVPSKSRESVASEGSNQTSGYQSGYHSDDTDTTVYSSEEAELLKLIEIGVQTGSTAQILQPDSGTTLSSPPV

[26] = molecular target: T1, Vascular endothelial growth factor receptor 2; experiment: Inhibition of recombinant human VEGFR2 using poly (Glu,Tyr)4:1 as substrate incubated for 60 mins by ELISA

SMILES: COc1cc(OC)c(Cl)c(-c2ccc3c(NC(=O)c4ccc(N5CCN(C)CC5)nc4)n[nH]c3n2)c1Cl
- IC50 [1]: 1.5 nM
- IC50 [2]: 6.2 nM

SMILES: COc1cc(OC)c(Cl)c(-c2ccc3c(NC(=O)c4ccc(N5CCN(C)CC5)s4)n[nH]c3n2)c1Cl
- IC50 [1]: 3.7 nM
- IC50 [2]: 4.1 nM

SMILES: COc1cc(OC)c(Cl)c(-c2ccc3c(NC(=O)c4ccc(N5CCNCC5)cc4)n[nH]c3n2)c1Cl
- IC50 [1]: 1.4 nM
- IC50 [2]: 11.7 nM

SMILES: COc1cc(OC)c(Cl)c(-c2ccc3c(NC(=O)c4ccccc4)n[nH]c3n2)c1Cl
- IC50 [1]: > 1000 nM
- IC50 [2]: 42.4 nM

SMILES: COc1cc(OC)c(Cl)c(-c2ccc3c(NC(=O)c4cnc(N5CCN(C)CC5)cn4)n[nH]c3n2)c1Cl
- IC50 [1]: 60.6 nM
- IC50 [2]: 10.5 nM

SMILES: CCN(CC)CCCCNc1ncc2cc(-c3cc(OC)cc(OC)c3)c(NC(=O)NC(C)(C)C)nc2n1 [PD-173074]
- IC50 [25]: 100 to 200 nM

SMILES: COc1cc(OC)c(Cl)c(-c2ccc3c(NC(=O)c4ccc(N)cc4)n[nH]c3n2)c1Cl
- IC50 [1]: 218 nM
- IC50 [2]: 8.8 nM

SMILES: COc1cc(OC)c(Cl)c(-c2ccc3c(NC(=O)c4ccc(N5CCN(C)CC5)c(Cl)c4)n[nH]c3n2)c1Cl
- IC50 [1]: 191 nM
- IC50 [2]: 14.5 nM

SMILES: COc1cc(C(=O)Nc2n[nH]c3nc(-c4c(Cl)c(OC)cc(OC)c4Cl)ccc23)ccc1N1CCN(C)CC1
- IC50 [1]: 15.6 nM
- IC50 [2]: 14.2 nM

SMILES: COc1cc(N2CCN(C)CC2)ccc1C(=O)Nc1n[nH]c2nc(-c3c(Cl)c(OC)cc(OC)c3Cl)ccc12
- IC50 [1]: 525 nM
- IC50 [2]: 74.4 nM

SMILES: COc1cc(OC)c(Cl)c(-c2ccc3c(NC(=O)c4ccc(N5CCCCC5)cc4)n[nH]c3n2)c1Cl
- IC50 [1]: 558 nM
- IC50 [2]: 8.8 nM

SMILES: COc1cc(CCc2cc(NC(=O)c3ccc(N4C[C@@H](C)N[C@@H](C)C4)cc3)n[nH]2)cc(OC)c1 [FEXAGRATINIB]
- clearance [3]: 16.1 mL/min/kg
- IC50 [1]: 37.9 nM
- AUC(0-inf) [4]: 9130 ng·h/mL
- inhibition in vivo at 12.5 mg/kg [13]: 77.1%
- IC50 [14]: < 0.2 nM
- IC50 [15]: 0.6 nM
- Vd [5]: 3.18 L/kg
- Cmax [6]: 1880 ng/mL
- AUC(0-inf) [7]: 2080 ng·h/mL
- bioavailability [8]: 74.7%
- Cmax [9]: 1350 ng/mL
- IC50 [21]: 20.2 nM
- IC50 [22]: 1.2 nM
- fraction unbound at 4 h, 5 µM [10]: 0.007
- half-life [11]: 2.29 h
- half-life [12]: 2.55 h

SMILES: COc1cc(OC)c(Cl)c(-c2ccc3c(NC(=O)c4ccc(N5CCN(C)CC5)cn4)n[nH]c3n2)c1Cl
- IC50 [1]: 4.4 nM
- IC50 [2]: 7.8 nM

SMILES: COc1cc(OC)c(Cl)c(-c2ccc3c(NC(=O)c4ccc(N5CCN(C)CC5)cc4)n[nH]c3c2)c1Cl
- IC50 [1]: 324 nM
- IC50 [2]: 3.3 nM

SMILES: COc1cc(OC)c(Cl)c(-c2ccc3c(NC(=O)c4ccc(N(C)C)cc4)n[nH]c3n2)c1Cl
- IC50 [1]: 294 nM
- IC50 [2]: 16.5 nM

SMILES: COc1cc(OC)c(Cl)c(-c2ccc3c(NC(=O)c4ccc(N5CCN(C)CC5)cc4)nn(C)c3n2)c1Cl
- IC50 [2]: > 5000 nM

SMILES: COc1cc(OC)cc(-c2ccc3c(NC(=O)c4ccc(N5CCN(C)CC5)cc4)n[nH]c3n2)c1
- IC50 [26]: 548 nM
- IC50 [1]: > 1000 nM
- IC50 [2]: 3710 nM

SMILES: COc1cc(OC)c(Cl)c(-c2ccc3c(NC(=O)c4ccc(N5CCN(C)CC5)cc4Cl)n[nH]c3n2)c1Cl
- IC50 [1]: 27.6 nM
- IC50 [2]: 14 nM

SMILES: COc1cc(OC)c(Cl)c(-c2ccc3c(NC(=O)c4ccc(N(C)CCN(C)C)cc4)n[nH]c3n2)c1Cl
- IC50 [1]: 11 nM
- IC50 [2]: 3.9 nM

SMILES: COc1cc(OC)c(Cl)c(-c2ccc3c(NC(=O)c4ccc(C5CCN(C)CC5)cc4)n[nH]c3n2)c1Cl
- IC50 [1]: 8.2 nM
- IC50 [2]: 6.9 nM

Second part, led by results:

- IC50 [1]: 0.7 nM
- IC50 [2]: 0.5 nM
SMILES: CCN1CCN(c2ccc(C(=O)Nc3n[nH]c4nc(-c5c(Cl)c(OC)cc(OC)c5Cl)ccc34)cc2)CC1

- clearance [3]: 18.1 mL/min/kg
- IC50 [1]: 1.3 nM
- AUC(0-inf) [4]: 4620 ng·h/mL
- Vd [5]: 5.43 L/kg
- Cmax [6]: 870 ng/mL
- AUC(0-inf) [7]: 1840 ng·h/mL
- IC50 [2]: 7.2 nM
- bioavailability [8]: 40.2%
- Cmax [9]: 500 ng/mL
- fraction unbound at 4 h, 5 µM [10]: 0.004
- half-life [11]: 3.47 h
- half-life [12]: 2.9 h
SMILES: COc1cc(OC)c(Cl)c(-c2ccc3c(NC(=O)c4ccc(N5CCCN(C)CC5)cc4)n[nH]c3n2)c1Cl

- clearance [3]: 16.6 mL/min/kg
- IC50 [1]: 0.7 nM
- AUC(0-inf) [4]: 9010 ng·h/mL
- IC50 [17]: 52.7 nM
- Vd [5]: 4.51 L/kg
- Cmax [6]: 826 ng/mL
- AUC(0-inf) [7]: 2000 ng·h/mL
- IC50 [19]: 2 nM
- IC50 [2]: 0.3 nM
- bioavailability [8]: 72%
- Cmax [9]: 1650 ng/mL
- IC50 [22]: < 0.2 nM
- IC50 [23]: 0.7 nM
- fraction unbound at 4 h, 5 µM [10]: 0.004
- half-life [11]: 3.13 h
- half-life [12]: 2.76 h
SMILES: COCCN1CCN(c2ccc(C(=O)Nc3n[nH]c4nc(-c5c(Cl)c(OC)cc(OC)c5Cl)ccc34)cc2)CC1
- inhibition in vivo at 12.5 mg/kg [13]: 54%
- IC50 [14]: < 0.2 nM
- IC50 [15]: < 0.2 nM
- Activity [16]: Non-Toxic
- TGI [18]: Dose-dependent effect
- Activity [20]: Non-Toxic
- IC50 [21]: < 0.4 nM
- inhibition in vivo at 50 mg/kg [24]: 100%

- IC50 [1]: 3.3 nM
- IC50 [2]: 0.6 nM
SMILES: C=CCN1CCN(c2ccc(C(=O)Nc3n[nH]c4nc(-c5c(Cl)c(OC)cc(OC)c5Cl)ccc34)cc2)CC1

- IC50 [1]: 43.3 nM
- IC50 [2]: 0.3 nM
SMILES: COc1cc(OC)c(Cl)c(-c2ccc3c(NC(=O)c4ccc(N5CCN(C(C)=O)CC5)cc4)n[nH]c3n2)c1Cl

- clearance [3]: 31 mL/min/kg
- IC50 [1]: < 0.5 nM
- AUC(0-inf) [4]: 3510 ng·h/mL
- Vd [5]: 10 L/kg
- Cmax [6]: 796 ng/mL
- AUC(0-inf) [7]: 1080 ng·h/mL
- IC50 [2]: 0.3 nM
- bioavailability [8]: 52.3%
- Cmax [9]: 802 ng/mL
- fraction unbound at 4 h, 5 µM [10]: 0.005
- half-life [11]: 3.74 h
- half-life [12]: 3.38 h
SMILES: COc1cc(OC)c(Cl)c(-c2ccc3c(NC(=O)c4ccc(N5CCN(CCO)CC5)cc4)n[nH]c3n2)c1Cl

- IC50 [1]: 245 nM
- IC50 [2]: 0.2 nM
SMILES: COc1cc(OC)c(Cl)c(-c2ccc3c(NC(=O)c4ccc(N5CCN(S(C)(=O)=O)CC5)cc4)n[nH]c3n2)c1Cl

- IC50 [1]: 2.3 nM
- IC50 [2]: 0.2 nM
SMILES: COc1cc(OC)c(Cl)c(-c2ccc3c(NC(=O)c4ccc(N5CCN(C6CCC6)CC5)cc4)n[nH]c3n2)c1Cl

- IC50 [1]: 1.4 nM
- IC50 [2]: 1.4 nM
SMILES: COc1cc(OC)c(Cl)c(-c2ccc3c(NC(=O)c4ccc(N5CCN(C(C)C)CC5)cc4)n[nH]c3n2)c1Cl

- IC50 [26]: 366 nM
- IC50 [1]: 1.7 nM
- IC50 [2]: 0.3 nM
SMILES: COc1cc(OC)c(Cl)c(-c2ccc3c(NC(=O)c4ccc(N5CCN(C)CC5)cc4)n[nH]c3n2)c1Cl

- IC50 [1]: 865 nM
- IC50 [2]: 7.7 nM
SMILES: COc1cc(OC)c(Cl)c(-c2ccc3c(NC(=O)c4ccc(N5CCOCC5)cc4)n[nH]c3n2)c1Cl
